We go through one compound from paper PMC9632963, “Preclinical characterization and phase I clinical trial of CT053PTSA targets MET, AXL, and VEGFR2 in patients with advanced solid tumors” (Frontiers in Immunology, 2022).

One experiment concerns SNU-484. The experiment can be described thus: Cell proliferation assay (CellTiter-Glo, 72 hours). Format: cell-based. As to conditions: Homo sapiens, read-out: IC50 anti-proliferative. For orientation: ATP-based viability assays read luminescence as a measure of living cells.
For the next experiment, the target named is AXL (Homo sapiens, UniProt P30530). Briefly: cell-based. On the procedure:
Phosphorylation of the receptors MET, AXL, VEGFR2, and FLT3 was assessed in the transgenic human MKN45 gastric tumor cell line overexpressing MET, mouse embryonic fibroblasts (MEFs) expressing full-length human AXL (AXL-MEFs), human umbilical vein endothelial cells (HUVECs) […], and MEFs expressing full-length human FLT3 (FLT3-wt-MEFs), respectively. […] Then, HUVECs and FLT3-wt-MEFs were stimulated with the ligands VEGF-A (100 ng/ml, for 3 min) and FLT3-ligand (50 ng/ml, for 5 min). MKN45 (overexpressing MET) and AXL-MEFs cells had no stimulation. Cells treated with staurosporine (AXL, FLT3-wt, c-Kit, FLT3, TIE2, VEGF-R2; [1,0E-05 M]) or BMS777607 (MET; [1,0E-06 M]) or sunitinib (VEGF-R3; [1,0E-06 M]) or crizotinib (RON; [1,0E-05 M] were defined as low control (n = 8). The median value of those wells represented the background and was set to 0%. Cells treated with solvent alone were defined as high control (n = 8). The median value of those wells was set to 100%. Test sample-treated cells as well as high and low control were stimulated in identical manner. Quantification of receptor tyrosine kinase autophosphorylation was assessed in 96-well plates via sandwich ELISA using a receptor specific capture antibody and an anti-phosphotyrosine detection antibody. […]

A further experiment has as its system SNU620. Briefly: Cell proliferation assay (CellTiter-Glo, 72 hours). The experiment is classed as cell-based. Conditions: Homo sapiens, read-out: IC50 anti-proliferative.

AXL, sequence (P30530 26-894): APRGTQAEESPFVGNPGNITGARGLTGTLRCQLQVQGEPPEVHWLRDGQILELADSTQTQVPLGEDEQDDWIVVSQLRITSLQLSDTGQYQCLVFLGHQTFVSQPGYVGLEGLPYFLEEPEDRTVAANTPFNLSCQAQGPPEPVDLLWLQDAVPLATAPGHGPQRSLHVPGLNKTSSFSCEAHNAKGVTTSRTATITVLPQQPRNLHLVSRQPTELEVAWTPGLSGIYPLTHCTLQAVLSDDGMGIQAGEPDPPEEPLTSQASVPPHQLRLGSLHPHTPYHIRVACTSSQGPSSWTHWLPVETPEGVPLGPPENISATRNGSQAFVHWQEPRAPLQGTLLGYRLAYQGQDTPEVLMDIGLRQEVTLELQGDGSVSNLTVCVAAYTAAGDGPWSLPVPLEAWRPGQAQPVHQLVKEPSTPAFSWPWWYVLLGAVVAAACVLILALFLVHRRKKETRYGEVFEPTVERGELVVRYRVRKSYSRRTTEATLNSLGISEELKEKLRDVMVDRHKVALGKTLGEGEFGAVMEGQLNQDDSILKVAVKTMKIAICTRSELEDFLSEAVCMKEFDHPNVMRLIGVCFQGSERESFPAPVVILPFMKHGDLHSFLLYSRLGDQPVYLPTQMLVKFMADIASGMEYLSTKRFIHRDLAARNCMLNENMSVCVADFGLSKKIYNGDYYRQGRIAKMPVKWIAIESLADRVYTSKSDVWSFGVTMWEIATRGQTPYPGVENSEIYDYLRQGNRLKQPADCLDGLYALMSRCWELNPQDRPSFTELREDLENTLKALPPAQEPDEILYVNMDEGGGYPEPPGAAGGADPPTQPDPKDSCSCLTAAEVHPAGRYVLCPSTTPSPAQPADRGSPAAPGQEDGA
Experimental for SNU620: Human gastric tumor cell lines with high MET expression levels, namely, the GTL-16, MKN45, SNU638, Hs746T, SNU-620, and SNU-5 cell lines, were used in the assay. […] Cell viability was measured after 72 hours using a CellTiter-Glo Luminescent Cell Viability Assay Kit (Promega, WI, USA) according to the manufacturer’s instructions.

Regarding `Cc1c(C(=O)Nc2ccc(Oc3ccnc4cc(OCC(C)(C)O)ccc34)c(F)c2)c(=O)n(-c2ccccc2)n1C` [CT053], the results for the half-maximal inhibitory concentration (IC50) with SNU-484, against AXL and with SNU620 were 8500 nM, 0.44 nM and 60 nM, respectively.
